Measured values taken from paper PMC12508156, “Non-canonical dihydrolipoyl transacetylase promotes chemotherapy resistance via mitochondrial tetrahydrofolate signaling” (Nature Communications, 2025).
“And” between values parts separate entries of the source, which are not always exact repeats. Equal values may be shown once.

Columns and labels:
[1] = test system: KB-3-1cisR xenograft tumors; assay: IHC of KB-3-1cisR xenograft tumors (Ac-K44 MTHFD2, MT-CO2, DLAT, Ki-67); format: in vivo, athymic nu/nu mice; parameters: key: IHC intensity score 0 to 3+; conditions: KB-3-1cisR xenograft tumors (Figure 8J)
Source text: Formalin-fixed and paraffin-embedded tumor tissue specimens from HNSCC and NSCLC patients were obtained from the […] Cancer Tissue and Pathology Shared Resources. The Institutional Review Board (IRB) of Emory University approved using human specimens (IRB00003208 - HNSCC, IRB00098377 - NSCLC). Clinical samples were collected with informed consent according to the Health Insurance Portability and Accountability Act. Patients' clinical information was obtained through the […] Technology Applications Shared Resource. Tumors from HNSCC or NSCLC patients who received chemotherapy-containing regimens were used. Immunohistochemistry (IHC) staining of DLAT, acetyl-[…] MTHFD2, MT-CO2, and Ki-67 was performed based on the established protocol. Antigen retrieval was conducted in Tris-EDTA (pH 9.0) for acetyl-[…] MTHFD2 and MT-CO2 and sodium citrate (pH 6.0) for the remaining antigens. […] Assessment of positive DLAT, MT-CO2, and acetyl-[…] MTHFD2 staining intensity within tumor cells was performed using a scoring system ranging from 0 to 3+ based on IHC signal intensity. Mice were subcutaneously injected into the flank with 1 × 10^6 KB-3-1^cisR cells with or without DLAT knockdown. […] Tumors were collected at the experimental endpoint, and tumor proliferation was assessed using Ki-67 IHC staining. The localization, penetration, and efficacy of DMp39 were monitored by assessing the acetyl-[…] levels in tumors and fluorescence imaging analysis using an IVIS imaging system. Drug-induced organ toxicities, including splenomegaly, liver damage, and kidney injury, were monitored by assessing spleen index, alanine transaminase activity, and cystatin C levels in plasma.

KB-3-1 cells = conditions: read-out: cisplatin IC50; parental KB-3-1 cells; cited from earlier work
Source text: The RNAi library contains 328 shRNA clones, and each gene was targeted by 2 ~ 8 clones (Fig. 1a). Eleven genes, including DLAT, were selected as unexplored lead hits with cisplatin-sensitizing potential and were further evaluated in A549^cisR, H1299, and KB-3-1^cisR, and two acetyltrans ...

HCT116 cells = assay: Apoptotic cell death (annexin V/PI staining); format: cell-based, human; conditions: Supple Fig 6A
Protocol: (§1) Cell viability was determined using the CellTiter-Glo Luminescent Cell Viability Assay. […] Subsequently, the cells were cultured in complete medium for an additional 10 days, and the resulting colonies were visualized by staining with crystal violet and quantified using ImageJ software. For cell cycle analysis, cells fixed with 70% ethanol were stained with RNase A (100 µg/mL) and propidium iodide (50 μg/ml) for 30 min at 37 °C, and DNA content distribution was measured using flow cytometry (BD Symphony A3) and analyzed with FlowJo software (v10.9). Apoptotic cell death was assessed via FITC-conjugated annexin V and propidium iodide staining.
(§2) Colon cancer cell lines, HCT116 (a) and HT-29 (b), were stably transduced with DLAT shRNA harboring lentivirus, followed by annexin V staining and CellTiter Glo Viability assay. Error bars represent SD and are from 3 independent biological replicates. P values were obtained by one-way ANOVA.
(§3) (1 picture or pasted object on this page, not shown here)

HT-29 cells = assay: Apoptotic cell death (annexin V/PI staining); format: cell-based, human; conditions: Supple Fig 6B
Protocol: as §1, §2, §3

[2] = test system: KB-3-1cisR xenograft tumors; assay: KB-3-1cisR xenograft tumor growth (volume, weight); format: in vivo, athymic nu/nu mice; parameters: unit not given here; conditions: cisplatin 5 mg/kg i.p. twice a week, endpoint, n=1-8: individual mice, listed as cis
Protocol: All animal procedures were conducted based on the protocol (DAR-PROTO-201700885) approved by the Emory University Institutional Animal Care and Use Committee. Female athymic nu/nu mice (Hsd:Athymic Nude-Foxn1nu, 6-week-old; Envigo) were housed under specific pathogen-free (SPF) conditions in the Emory University animal facility. […] Mice were subcutaneously injected into the flank with 1 × 10^6 KB-3-1^cisR cells with or without DLAT knockdown. […] Tumors were collected at the experimental endpoint, and tumor proliferation was assessed using Ki-67 IHC staining. The localization, penetration, and efficacy of DMp39 were monitored by assessing the acetyl-[…] levels in tumors and fluorescence imaging analysis using an IVIS imaging system. Drug-induced organ toxicities, including splenomegaly, liver damage, and kidney injury, were monitored by assessing spleen index, alanine transaminase activity, and cystatin C levels in plasma.

A549cisR cells = assay: Cell viability (CellTiter-Glo); format: cell-based, human; parameters: unit not given here; conditions: 48 h, n=1-3: biological replicates
Protocol: as §1

KB-3-1cisR cells = assay: Cell viability (CellTiter-Glo); format: cell-based, human; parameters: unit not given here; conditions: 48 h, n=1-3: biological replicates
Protocol: as §1

H1299 cells = assay: Cell viability (CellTiter-Glo); format: cell-based, human; parameters: unit not given here; conditions: 48 h, n=1-3: biological replicates
Protocol: as §1

PCI-37B cells = assay: Cell viability (CellTiter-Glo); format: cell-based, human; parameters: unit not given here; conditions: 48 h, n=1-3: biological replicates
Protocol: as §1

## N.N.[Cl][Pt][Cl] [cisplatin]
[1]; n=1
  Ac-K44 (IHC score): 2
  DLAT (IHC score): 2
  MT-CO2 (IHC score): 3
[1]; n=2
  Ac-K44 (IHC score): 3
  DLAT (IHC score): 3
  MT-CO2 (IHC score): 3
[1]; n=3
  Ac-K44 (IHC score): 2
  DLAT (IHC score): 2
  MT-CO2 (IHC score): 3
[1]; n=4
  Ac-K44 (IHC score): 2
  DLAT (IHC score): 3
  MT-CO2 (IHC score): 3
[1]; n=5
  Ac-K44 (IHC score): 2
  DLAT (IHC score): 3
  MT-CO2 (IHC score): 1
[1]; n=6
  Ac-K44 (IHC score): 2
  DLAT (IHC score): 2
  MT-CO2 (IHC score): 3
KB-3-1 cells
  IC50: 8.4 µM
HCT116 cells; HCT116, pLKO.1 control cells + cis, replicate n=2
  Apoptotic death: 17.9
HCT116 cells; HCT116, shDLAT cells + cis, replicate n=2
  Apoptotic death: 15.5
HCT116 cells; HCT116, shDLAT cells + cis, replicate n=3
  Apoptotic death: 18.3
HT-29 cells; HT-29, pLKO.1 control cells + cis, replicate n=2
  Apoptotic death: 20
HT-29 cells; HT-29, pLKO.1 control cells + cis, replicate n=3
  Apoptotic death: 20.2
HT-29 cells; HT-29, shDLAT cells + cis, replicate n=1
  Apoptotic death: 20.2
HT-29 cells; HT-29, shDLAT cells + cis, replicate n=2
  Apoptotic death: 22.2
HT-29 cells; HT-29, shDLAT cells + cis, replicate n=3
  Apoptotic death: 22.9
[2]; KB-3-1cisR pLKO.1 xenograft
  Tumor weight: 0.88 and 0.77 and 0.52 and 1.65 and 1.63 and 1.39 and 1.43 and 1.01
[2]; KB-3-1cisR shDLAT #1 xenograft
  Tumor weight: 0.29 and 0.41 and 0.58 and 0.1 and 0.06 and 0.15 and 0.16 and 0.23
[2]; KB-3-1cisR shDLAT #2 xenograft
  Tumor weight: 0.63 and 0.5 and 0.66 and 0.02 and 0.08 and 0.19 and 0.34 and 0.36
A549cisR cells; DLAT #1 shRNA knockdown
  cisplatin IC50: 3.049 and 3.093 and 3.477
A549cisR cells; DLAT #2 shRNA knockdown
  cisplatin IC50: 3.68 and 3.342 and 3.385
A549cisR cells; pLKO.1 control
  cisplatin IC50: 10.93 and 10.63 and 11.6
KB-3-1cisR cells; DLAT #1 shRNA knockdown
  cisplatin IC50: 5.222 and 4.723 and 5.403
KB-3-1cisR cells; DLAT #2 shRNA knockdown
  cisplatin IC50: 8.292 and 8.491 and 9.402
KB-3-1cisR cells; pLKO.1 control
  cisplatin IC50: 35.64 and 37.47 and 39.03
H1299 cells; H1299, DLAT #1 shRNA knockdown
  cisplatin IC50: 4.334 and 4.088 and 4.359
H1299 cells; H1299, DLAT #2 shRNA knockdown
  cisplatin IC50: 9.212 and 9.08 and 8.246
H1299 cells; H1299, pLKO.1 control
  cisplatin IC50: 13.89 and 13.96 and 12.36
PCI-37B cells; DLAT #1 shRNA knockdown
  cisplatin IC50: 0.6706 and 0.655 and 0.6977
PCI-37B cells; DLAT #2 shRNA knockdown
  cisplatin IC50: 1.089 and 1.15 and 1.31
PCI-37B cells; pLKO.1 control
  cisplatin IC50: 2.128 and 2.267 and 2.42
